# Source: patent publication US20240199584A1, “KRAS INHIBITORS” (Bristol-Myers Squibb Company, priority 2022, published 2024)
# Where two headings read alike, the source gives them in different places.
# Columns and labels:
# [1] = target: T1, KRAS G12A (Homo sapiens, UniProt P01116, G12A); assay: Cellular KRAS:RAF Disruption Assay (NanoBRET), KRAS G12A; type: cell-based; settings: HEK293 T cells co-expressing RAF1 and KRAS G12A, 24 hours; read-out: RAS::RAF binding via NanoBRET IC50, KRAS G12A
# T1 construct: expressed in transfected cells
# Description: (§1) Cellular KRAS:RAF Disruption Assay
# (§2) Stable cell lines (HEK293 T) were generated to co-express RAF1 and mutant or wild type KRAS, as indicated, using the BiBRET vector (Promega). Engineered cell lines were suspended in media (OptiMEM, […]), plated in 384-well plates (8000 cells/well), and allowed to rest for 1.5 hours. Cells were treated with compounds for 24 hours, and NanoBRET NanoGlo substrate (Promega) was added per the manufacturer's instructions.
# [2] = target: T2, KRAS G12C (Homo sapiens, UniProt P01116, G12C); assay: Cellular KRAS:RAF Disruption Assay (NanoBRET), KRAS G12C; type: cell-based; settings: HEK293 T cells co-expressing RAF1 and KRAS G12C, 24 hours; read-out: RAS::RAF binding via NanoBRET IC50, KRAS G12C
# T2 construct: expressed in transfected cells
# Description: as §1, §2
# [3] = target: T3, KRAS G12V (Homo sapiens, UniProt P01116, G12V); assay: Cellular KRAS:RAF Disruption Assay (NanoBRET), KRAS G12V; type: cell-based; settings: HEK293 T cells co-expressing RAF1 and KRAS G12V, 24 hours; read-out: RAS::RAF binding via NanoBRET IC50, KRAS G12V
# T3 construct: expressed in transfected cells
# Description: as §1, §2
# [4] = target: T4, KRAS G13D (Homo sapiens, UniProt P01116, G13D); assay: Cellular KRAS:RAF Disruption Assay (NanoBRET), KRAS G13D; type: cell-based; settings: HEK293 T cells co-expressing RAF1 and KRAS G13D, 24 hours; read-out: RAS::RAF binding via NanoBRET IC50, KRAS G13D
# T4 construct: expressed in transfected cells
# Description: as §1, §2
# [5] = target: T5, KRAS WT (Homo sapiens, UniProt P01116); assay: Cellular KRAS:RAF Disruption Assay (NanoBRET), KRAS WT; type: cell-based; settings: HEK293 T cells co-expressing RAF1 and wild type KRAS, 24 hours; read-out: RAS::RAF binding via NanoBRET IC50, KRAS WT
# T5 construct: expressed in transfected cells
# Description: as §1, §2
# [6] = target: T6, KRAS G12R (Homo sapiens, UniProt P01116, G12R); assay: Cellular KRAS:RAF Disruption Assay (NanoBRET), KRAS G12R; type: cell-based; settings: HEK293 T cells co-expressing RAF1 and KRAS G12R, 24 hours; read-out: RAS::RAF binding via NanoBRET IC50, KRAS G12R
# T6 construct: expressed in transfected cells
# Description: as §1, §2
# [7] = target: T7, KRAS G12S (Homo sapiens, UniProt P01116, G12S); assay: Cellular KRAS:RAF Disruption Assay (NanoBRET), KRAS G12S; type: cell-based; settings: HEK293 T cells co-expressing RAF1 and KRAS G12S, 24 hours; read-out: RAS::RAF binding via NanoBRET IC50, KRAS G12S
# T7 construct: expressed in transfected cells
# Description: as §1, §2
# [8] = target: T8, KRAS Q61H (Homo sapiens, UniProt P01116, Q61H); assay: Cellular KRAS:RAF Disruption Assay (NanoBRET), KRAS Q61H; type: cell-based; settings: HEK293 T cells co-expressing RAF1 and KRAS Q61H, 24 hours; read-out: RAS::RAF binding via NanoBRET IC50, KRAS Q61H
# T8 construct: expressed in transfected cells
# Description: as §1, §2
# [9] = target: T9, KRAS Q61R (Homo sapiens, UniProt P01116, Q61R); assay: Cellular KRAS:RAF Disruption Assay (NanoBRET), KRAS Q61R; type: cell-based; settings: HEK293 T cells co-expressing RAF1 and KRAS Q61R, 24 hours; read-out: RAS::RAF binding via NanoBRET IC50, KRAS Q61R
# T9 construct: expressed in transfected cells
# Description: as §1, §2
# [10] = target: T10, KRAS A146T (Homo sapiens, UniProt P01116, A146T); assay: Cellular KRAS:RAF Disruption Assay (NanoBRET), KRAS A146T; type: cell-based; settings: HEK293 T cells co-expressing RAF1 and KRAS A146T, 24 hours; read-out: RAS::RAF binding via NanoBRET IC50, KRAS A146T
# T10 construct: expressed in transfected cells
# Description: as §1, §2
# [11] = target: T11, KRAS G12D (Homo sapiens, UniProt P01116, G12D); assay: biochemical
# Description: Recombinant GST-RAF1 RBD (Ras binding domain) (9 nM) was added, followed by the addition of SA-Tb (0.25 nM), and the reaction mixture was incubated for 3 hours. HTRF (Homogeneous Time-Resolved Fluorescence) signal was measured (PerkinElmer Envision), the signal ratio (λem 520/λem 495) was calculated, and IC50 values were calculated from the dose-response curve.
# [12] = target: T11, KRAS G12D; assay: biochemical; remark: listed apart in the source
# Description: BIODIPY-labeled GDP (BIODIPY: dipyrrometheneboron difluoride) (400 nM) and recombinant SOS (son of sevenless protein) (10 nM) were added, and the reaction was incubated for 30 minutes. HTRF signal was measured (PerkinElmer Envision), the signal ratio (λem 520/λem 495) was calculated, and IC50 values were calculated from the dose-response curve.
# T11 sequence (P01116 1-188 isoform P01116-2 G12D): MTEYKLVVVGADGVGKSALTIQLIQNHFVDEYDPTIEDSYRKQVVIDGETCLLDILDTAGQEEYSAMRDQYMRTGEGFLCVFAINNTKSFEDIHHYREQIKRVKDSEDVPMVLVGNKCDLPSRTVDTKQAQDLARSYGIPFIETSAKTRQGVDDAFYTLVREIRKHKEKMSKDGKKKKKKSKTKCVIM
# T4 sequence (P01116 1-188 isoform P01116-2 G13D): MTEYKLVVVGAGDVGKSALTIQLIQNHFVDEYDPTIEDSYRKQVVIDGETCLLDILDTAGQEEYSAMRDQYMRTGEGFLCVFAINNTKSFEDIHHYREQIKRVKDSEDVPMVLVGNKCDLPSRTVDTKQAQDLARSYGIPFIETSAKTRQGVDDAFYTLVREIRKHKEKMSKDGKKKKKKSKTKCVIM
# T3 sequence (P01116 1-188 isoform P01116-2 G12V): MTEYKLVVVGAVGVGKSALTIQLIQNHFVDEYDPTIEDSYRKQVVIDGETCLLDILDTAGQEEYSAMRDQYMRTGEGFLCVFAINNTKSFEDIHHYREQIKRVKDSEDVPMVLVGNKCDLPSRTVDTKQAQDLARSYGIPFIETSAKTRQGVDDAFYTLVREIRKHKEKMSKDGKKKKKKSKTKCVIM
# T6 sequence (P01116 1-188 isoform P01116-2 G12R): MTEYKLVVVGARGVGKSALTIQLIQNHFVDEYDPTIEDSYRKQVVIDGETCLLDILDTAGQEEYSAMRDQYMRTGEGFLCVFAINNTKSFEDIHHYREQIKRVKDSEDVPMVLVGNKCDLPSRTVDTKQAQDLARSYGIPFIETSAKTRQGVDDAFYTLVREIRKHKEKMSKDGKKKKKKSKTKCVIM
# T10 sequence (P01116 1-188 isoform P01116-2 A146T): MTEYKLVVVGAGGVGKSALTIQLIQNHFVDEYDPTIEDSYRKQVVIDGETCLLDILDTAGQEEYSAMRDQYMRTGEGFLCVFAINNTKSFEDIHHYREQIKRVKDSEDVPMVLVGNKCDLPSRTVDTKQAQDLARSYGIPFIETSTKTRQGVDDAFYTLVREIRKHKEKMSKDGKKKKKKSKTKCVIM
# T7 sequence (P01116 1-188 isoform P01116-2 G12S): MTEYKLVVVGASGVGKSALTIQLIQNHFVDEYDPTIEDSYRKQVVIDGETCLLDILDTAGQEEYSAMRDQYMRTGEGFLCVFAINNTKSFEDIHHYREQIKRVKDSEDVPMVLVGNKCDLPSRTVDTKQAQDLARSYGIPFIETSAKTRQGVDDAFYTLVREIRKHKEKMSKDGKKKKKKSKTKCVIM
# T1 sequence (P01116 1-188 isoform P01116-2 G12A): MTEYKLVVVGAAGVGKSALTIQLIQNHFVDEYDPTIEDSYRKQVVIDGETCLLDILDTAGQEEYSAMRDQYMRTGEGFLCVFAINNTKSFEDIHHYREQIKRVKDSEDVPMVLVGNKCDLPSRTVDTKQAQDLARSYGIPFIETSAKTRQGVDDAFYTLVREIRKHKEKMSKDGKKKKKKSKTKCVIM
# T5 sequence (P01116 1-188 isoform P01116-2): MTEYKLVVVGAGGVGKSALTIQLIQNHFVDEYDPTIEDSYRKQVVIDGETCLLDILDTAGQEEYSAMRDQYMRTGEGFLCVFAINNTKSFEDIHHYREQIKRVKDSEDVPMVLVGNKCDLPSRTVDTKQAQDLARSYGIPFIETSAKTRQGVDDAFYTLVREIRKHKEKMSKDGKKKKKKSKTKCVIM
# T9 sequence (P01116 1-188 isoform P01116-2 Q61R): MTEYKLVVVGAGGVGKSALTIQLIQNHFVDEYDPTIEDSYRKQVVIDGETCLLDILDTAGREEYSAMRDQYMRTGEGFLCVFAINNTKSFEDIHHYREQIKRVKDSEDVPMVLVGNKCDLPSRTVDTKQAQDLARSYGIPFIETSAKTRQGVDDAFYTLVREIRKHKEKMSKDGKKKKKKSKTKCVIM
# T8 sequence (P01116 1-188 isoform P01116-2 Q61H): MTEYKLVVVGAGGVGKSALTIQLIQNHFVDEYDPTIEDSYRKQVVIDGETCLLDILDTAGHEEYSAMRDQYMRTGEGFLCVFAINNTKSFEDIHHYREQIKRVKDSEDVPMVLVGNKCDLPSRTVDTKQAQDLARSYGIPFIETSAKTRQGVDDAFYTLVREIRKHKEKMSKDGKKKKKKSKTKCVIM
# T2 sequence (P01116 1-188 isoform P01116-2 G12C): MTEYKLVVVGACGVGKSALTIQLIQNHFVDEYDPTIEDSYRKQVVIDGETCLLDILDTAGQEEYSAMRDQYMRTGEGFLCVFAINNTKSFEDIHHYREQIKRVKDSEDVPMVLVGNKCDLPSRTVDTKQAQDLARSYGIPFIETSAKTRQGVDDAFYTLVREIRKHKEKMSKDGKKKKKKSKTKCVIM
SMILES,IC50 [1] [nM],IC50 [2] [nM],IC50 [3] [nM],IC50 [4] [nM],IC50 [5] [nM],IC50 [6] [nM],IC50 [7] [nM],IC50 [8] [nM],IC50 [9] [nM],IC50 [10] [nM],IC50 [11] [nM],IC50 [12] [nM]
"C#Cc1c(F)ccc2cc(O)cc(-c3ncc4c(N5CC6CCC(C5)N6C(=O)C5CC5)nc(OC[C@@]56CCCN5C[C@H](F)C6)nc4c3F)c12 [Example 6-2, 4-(2-{[(2R,7aS)-2-fluoro-hexahydro-1H-pyrrolizin-7a-yl]methoxy}-4-{8-cyclopropanecarbonyl-3,8-diazabicyclo[3.2.1]octan-3-yl}-8-fluoropyrido[4,3-d]pyrimidin-7-yl)-5-ethynyl-6-fluoronaphthalen-2-ol]",29,117,405,72,69,> 10000,109,234,> 10000,179,900,< 2
"C#Cc1c(F)ccc2cc(O)cc(-c3ncc4c(N5CCCOCC5)nc(OC[C@]56CCC[C@H]5N(C)CCC6)nc4c3F)c12 [Example 1-3, 4-(2-{[(4aS,7aR)-1-methyl-octahydro-1H-cyclopenta[b]pyridin-4a-yl]methoxy}-8-fluoro-4-(1,4-oxazepan-4-yl)pyrido[4,3-d]pyrimidin-7-yl)-5-ethynyl-6-fluoronaphthalen-2-ol]",2,3,19,5,2,133,4,7,1460,16,< 2,< 2
